Source: patent US20240254109A1, “SALT CONTAINING PIPERAZINE POLYCYCLIC DERIVATIVE, CRYSTAL FORM THEREOF, PREPARATION METHOD THEREFOR, AND USE THEREOF” (Shanghai Hansoh Biomedical Co., Ltd., priority 2021, published 2024)
Blank lines part the entries; values can stand above or below the compound they belong to.

Legend:
Format in all cases: physicochemical
[1] = Study on the salt form of compound (salt forming with counter ion acids); settings: for Phenomenon after the addition of acid: acid 1:1.2, room temperature
Procedure: To identify which counter ion acids can form salts with the compound by selecting different counter ion acids.
10 mg of free base was weighed. 200 μL of tetrahydrofuran was added. Different counter ion acids were added separately at room temperature, and the solvent was volatilized to dry. If a solid was precipitated during the reaction, the suspension was centrifuged, and the resulting solid was vacuum dried at 50° C. […] The resulting suspension was centrifuged and the supernatant was removed. The solid was dried in vacuum at 50° C.
10 mg of free base was weighed, and 200 μL of acetone was added. Different counter ion acids were added separately at room temperature, and the solvent was volatilized to dry. If a solid was precipitated, the resulting solid was dried in vacuum overnight at 50° C. […] The resulting suspension was centrifuged, and the supernatant was removed. The solid was dried in vacuum at 50° C.
10 mg of free base compound was weighed, and 100 μL of organic solvent was added to the suspension state. The corresponding acid was added according to the molar ratio of 1:1.2 at room temperature, and the reaction was stirred for 4d. The reaction was centrifuged, and the resulting solid was dried in vacuum at 50° C.

[2] = Study on the crystal form of salt of compound (crystallization with counter ion acids); settings: for Phenomenon: base: acid=1:1.2, 25° C.; for Phenomenon after the addition of acid / Results: volatilization method; for Phenomenon after the addition of acid: crystal form B of free base in tetrahydrofuran, base: acid=1:1.2; for Results: tetrahydrofuran volatilized at room temperature
Procedure: To identify which counter ion acids can form crystal form of salt of compound by selecting different counter ion acids according to suitable crystallization methods.
1 mL of the solution was taken into a glass bottle, and different counter ion acids (molar reaction ratio of base: acid=1:1.2) were added, and then the glass bottle was opened at room temperature to volatile solvent. The amorphous or oily was pulped with 200 μL of ethyl acetate.
1) 10 mg of crystal form B of free base was weighed, and 200 μL of methanol solvent was added, and counter ion acid (molar reaction ratio of base: acid=1:1.2) was added respectively at 25° C.
2) 85 mg of crystal form B of free base was weighed, and ethyl acetate was added to produce a clear solution. Different counter ion acids (molar reaction ratio of base: acid=1:1.2) were added respectively at 25° C.

[3] = Solubility of hydrochloride in different media; settings: 37° C.
Procedure: 2.1.5 Solubility of Hydrochloride in Different Media
1.0 mg of compound was weighed into a 2 mL glass bottle, then 1 mL of dissolving medium was added respectively. The glass bottle was shaken overnight on an electrothermal constant temperature shaking tank, and the temperature was set to 37° C. After 24 hours, the sample solution was filtered with a […] mixed water fiber filter membrane, and the subsequent filtrate was taken to test its content by HPLC. HPLC detection methods are described in “Stability Study Conditions”.

[4] = Hygroscopicity study of salt (DVS)
From the text: 2.1.4 Hygroscopicity Study of Salt
The hygroscopicity of a drug refers to the characteristics of the drug's ability or degree of water absorption at a certain temperature and humidity. […] (DVS) was used to characterize the ability of drugs to absorb water under different humidity conditions. The instrument parameters are detailed in the table below.

[5] = Crystal form stability study of hydrochloride for 30 days
Procedure: 9. Crystal Form Stability Study of Hydrochloride for 30 Days
The 30 days stability of hydrochloride of N-(trans-3-(2-(4-(2,3-dichlorophenyl)piperazin-1-yl)ethyl)cyclobutyl)oxazole-2-carboxamide under four conditions of 60° C. (closed), 40° C. & RH 75% (open), 25° C./RH 92.5% (open) and light (5000±500 Lux) was detected, which provided scientific basis for the production, packaging, storage and transportation conditions of drugs.
The diluent 80% methanol solution was added to prepare a solution containing about 0.5 mg/mL hydrochloride. The mixture was sonicated for 30 min to produce a clear solution. 1 mL of the solution was filtered and measured by HPLC. See “2.3.4” for the HPLC analysis method. The content of related substances was calculated according to the peak area normalization method, and the results are shown in Table 32 below.

[6] = Stability study of salt (5 days and 10 days, HPLC related substances)
Procedure: 2.1.3 Stability Study of Salt
Hydrochloride and p-toluenesulfonate of N-(trans-3-(2-(4-(2,3-dichlorophenyl)piperazin-1-yl)ethyl)cyclobutyl)oxazole-2-carboxamide were weighed about 1 mg, respectively, and then placed under light (5000 lux), high temperature (60° C.), high humidity (92.50 RH), high temperature and high humidity (50° C. and 75% RH) for 5 days and 10 days, then a diluent DMSO was added to prepare a solution with salt concentration of about 1 mg/mL.
The chromatographic peak area normalization method was used to calculate the changes of related substances.

[7] = free base suspended in 100 μL Isopropanol
[8] = free base suspended in 100 μL Isopropanol, acid 1:1.2, stirred 4d
[9] = WS-30 d (high temperature and high humidity)
[10] = GWGS-5 d (high temperature and high humidity)
[11] = GWGS-10 d (high temperature and high humidity)
[12] = high temperature, light, high humidity, high temperature and high humidity, 5 and 10 days

Phenomenon after the addition of acid [1, 7]: muddy
Product [1, 8]: Salt forming
Structure (SMILES): O=C(O)/C=C/C(=O)O [Fumaric acid]

Phenomenon ([2]; solvent Isopropyl ether): Turbid
Structure (SMILES): O=C(O)/C=C/C(=O)O [0.25M fumaric acid in ethanol]

Phenomenon after the addition of acid [2]: Clear
Results [2]: Oil or gel
Structure (SMILES): Br [1.0M hydrobromic acid (in methanol)]

Structure (SMILES): Cl [1.0M hydrochloric acid (in methanol)]
Phenomenon ([2]; solvent 2-Butanone): Clear
Phenomenon ([2]; solvent 2-Methyl-tetrahydrofuran): Suspension
Phenomenon ([2]; solvent Acetone): Suspension
Phenomenon ([2]; solvent Ethanol): Clear
Phenomenon ([2]; solvent Ethyl acetate): Suspension
Phenomenon ([2]; solvent Ethyl formate): Precipitation
Phenomenon ([2]; solvent Isopropanol): Suspension
Phenomenon ([2]; solvent Isopropyl acetate): Suspension
Phenomenon ([2]; solvent Methyl tert-butyl ether): Suspension
Phenomenon after the addition of acid [2]: Clear
Results [2]: Oil or gel

Structure (SMILES): CC(=O)O [Acetic acid]
Phenomenon after the addition of acid [1, 7]: muddy
Product [1, 8]: Salt forming

Structure (SMILES): CC(=O)O [1.0M acetic acid (in methanol)]
Phenomenon after the addition of acid [2]: Clear
Results [2]: Oil or gel

Structure (SMILES): Cl.O=C(N[C@H]1C[C@H](CCN2CCN(c3cccc(Cl)c3Cl)CC2)C1)c1ncco1 [N-(trans-3-(2-(4-(2,3-dichlorophenyl)piperazin-1-yl)ethyl)cyclobutyl)oxazole-2-carboxamide hydrochloride]
solubility in different pH buffers (dependence) ([3]; 24 hours): pH-dependent
solubility ([3]; acidic conditions): better solubility
solubility ([3]; neutral or alkaline conditions): poor solubility
solubility in water compared with free base ([3]; water): greatly improved
hygroscopicity (DVS) [4]: slightly hygroscopic
RRT 1.00 Area % ([5]; 0 d): 99.44%
RRT 1.07 Area % ([5]; 0 d): 0.07%
RRT 1.93 Area % ([5]; 0 d): 0.42%
RRT 2.43 Area % ([5]; 0 d): 0.07%
RRT 1.00 Area % ([5]; GS-30 d (high humidity)): 99.43%
RRT 1.07 Area % ([5]; GS-30 d (high humidity)): 0.11%
RRT 1.93 Area % ([5]; GS-30 d (high humidity)): 0.39%
RRT 2.43 Area % ([5]; GS-30 d (high humidity)): 0.07%
RRT 1.00 Area % ([5]; GW-30 d (high temperature)): 99.51%
RRT 1.07 Area % ([5]; GW-30 d (high temperature)): 0.08%
RRT 1.93 Area % ([5]; GW-30 d (high temperature)): 0.41%
RRT 1.00 Area % ([5]; GZ-30 d (light)): 99.43%
RRT 1.07 Area % ([5]; GZ-30 d (light)): 0.09%
RRT 1.93 Area % ([5]; GZ-30 d (light)): 0.41%
RRT 2.43 Area % ([5]; GZ-30 d (light)): 0.08%
RRT 1.00 Area % [5, 9]: 99.46%
RRT 1.07 Area % [5, 9]: 0.09%
RRT 1.93 Area % [5, 9]: 0.38%
RRT 2.43 Area % [5, 9]: 0.07%
RRT 1.000 Area % ([6]; 0 d): 99.619%
RRT 1.050 Area % ([6]; 0 d): 0.153%
RRT 1.200 Area % ([6]; 0 d): 0.163%
RRT 1.550 Area % ([6]; 0 d): 0.065%
total Area % (related substances) ([6]; 0 d): 0.381%
RRT 0.220 Area % ([6]; GS-5 d (high humidity)): 0.055%
RRT 1.000 Area % ([6]; GS-5 d (high humidity)): 99.556%
RRT 1.050 Area % ([6]; GS-5 d (high humidity)): 0.160%
RRT 1.200 Area % ([6]; GS-5 d (high humidity)): 0.161%
RRT 1.550 Area % ([6]; GS-5 d (high humidity)): 0.069%
total Area % (related substances) ([6]; GS-5 d (high humidity)): 0.444%
RRT 1.000 Area % ([6]; GS-10 d (high humidity)): 99.619%
RRT 1.050 Area % ([6]; GS-10 d (high humidity)): 0.153%
RRT 1.200 Area % ([6]; GS-10 d (high humidity)): 0.163%
RRT 1.550 Area % ([6]; GS-10 d (high humidity)): 0.065%
total Area % (related substances) ([6]; GS-10 d (high humidity)): 0.381%
RRT 1.000 Area % ([6]; GW-5 d (high temperature)): 99.604%
RRT 1.050 Area % ([6]; GW-5 d (high temperature)): 0.164%
RRT 1.200 Area % ([6]; GW-5 d (high temperature)): 0.163%
RRT 1.550 Area % ([6]; GW-5 d (high temperature)): 0.068%
total Area % (related substances) ([6]; GW-5 d (high temperature)): 0.396%
RRT 1.000 Area % ([6]; GW-10 d (high temperature)): 99.590%
RRT 1.050 Area % ([6]; GW-10 d (high temperature)): 0.170%
RRT 1.200 Area % ([6]; GW-10 d (high temperature)): 0.163%
RRT 1.550 Area % ([6]; GW-10 d (high temperature)): 0.077%
total Area % (related substances) ([6]; GW-10 d (high temperature)): 0.410%
RRT 1.000 Area % [6, 10]: 99.603%
RRT 1.050 Area % [6, 10]: 0.144%
RRT 1.200 Area % [6, 10]: 0.165%
RRT 1.550 Area % [6, 10]: 0.088%
total Area % (related substances) [6, 10]: 0.397%
RRT 1.000 Area % [6, 11]: 99.614%
RRT 1.050 Area % [6, 11]: 0.157%
RRT 1.200 Area % [6, 11]: 0.161%
RRT 1.550 Area % [6, 11]: 0.067%
total Area % (related substances) [6, 11]: 0.386%
RRT 1.000 Area % ([6]; GZ-5 d (light)): 99.617%
RRT 1.050 Area % ([6]; GZ-5 d (light)): 0.148%
RRT 1.200 Area % ([6]; GZ-5 d (light)): 0.160%
RRT 1.550 Area % ([6]; GZ-5 d (light)): 0.075%
total Area % (related substances) ([6]; GZ-5 d (light)): 0.383%
RRT 1.000 Area % ([6]; GZ-10 d (light)): 99.604%
RRT 1.050 Area % ([6]; GZ-10 d (light)): 0.162%
RRT 1.200 Area % ([6]; GZ-10 d (light)): 0.158%
RRT 1.550 Area % ([6]; GZ-10 d (light)): 0.077%
total Area % (related substances) ([6]; GZ-10 d (light)): 0.396%
growth of impurities [6, 12]: no significant growth of impurities
stability of salt [6, 12]: good stability

Structure (SMILES): CC(=O)O [1M acetic acid in methanol]
Phenomenon ([2]; solvent Isopropanol): Turbid
Phenomenon ([2]; solvent Isopropyl ether): Turbid

Product ([1]; acetone volatilized to dry): Gel
After adding 200 μL of ethyl acetate ([1]; stirred 4 hours at room temperature): Gel
Structure (SMILES): CS(=O)(=O)O [Methanesulfonic acid (1 mol/L in EtOH)]
